The values below come from paper PMC8748444, “Hypocrates is a genetically encoded fluorescent biosensor for (pseudo)hypohalous acids and their derivatives” (Nature Communications, 2022).

The target of assay [1] is T1, Hypocrates (NemR-cpYFP biosensor) (Escherichia coli, UniProt P67430, C21S/C98S/C116S/C149S/C153S, form not given).
T1 construct: cpYFP (from HyPer-2) inserted with SAG/GT linkers into flexible loop of NemR^C106; pQE30; with Green fluorescent protein (circularly permuted yellow variant, cpYFP)
T1 sequence (P67430 whole entry C21S/C98S/C116S/C149S/C153S, form open): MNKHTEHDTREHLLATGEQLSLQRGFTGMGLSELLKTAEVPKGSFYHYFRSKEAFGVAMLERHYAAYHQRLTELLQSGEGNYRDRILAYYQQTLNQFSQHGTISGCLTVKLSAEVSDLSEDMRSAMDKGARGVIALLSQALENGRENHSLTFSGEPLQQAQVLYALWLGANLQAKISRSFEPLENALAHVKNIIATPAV
Briefly: fluorescence titration, Ex500/Ex417 ratio. In kind it is binding. The following applies: covalent (oxidation); 100 mM sodium phosphate pH 7.4, 25 °C; 0.5 µM protein.

Assay [2] has as its target Hypocrates (NemR-cpYFP biosensor) (E. coli). In words: SEC; Superdex 200 Increase 10/300 GL, 100 mM sodium phosphate buffer pH 7.4, 24 °C, 0.75 ml/min; samples incubated with 5 mM DTT or with N-chlorotaurine at 1:20 protein/oxidant ratio for 5 min before injection; absorbance at 415 nm; column calibrated with mass standards. For orientation: In gel filtration, larger molecules generally elute earlier.

Assay [3] concerns the target T1, Hypocrates (NemR-cpYFP biosensor). Briefly: stopped-flow, cpYFP fluorescence (λex […] nm). In kind it is binding. The following applies: covalent (oxidation, chlorination); 100 mM sodium phosphate pH 7.4, 25 °C; 0.5 µM protein.
The target of assay [4] is T2, Hypocrates (NemR-cpYFP biosensor) (Escherichia coli, UniProt P67430, C21S/C98S/C106S/C116S/C149S/C153S, form not given).
T2 construct: cpYFP (from HyPer-2) inserted with SAG/GT linkers into flexible loop of NemR^C106; pQE30; with Green fluorescent protein (circularly permuted yellow variant, cpYFP)
T2 sequence (P67430 whole entry C21S/C98S/C106S/C116S/C149S/C153S, form open): as the sequence (P67430 whole entry C21S/C98S/C116S/C149S/C153S, form open) above, with C106S counted along it
In words: fluorescence excitation spectra in E. coli cells expressing the sensor. In kind it is cell-based. The following applies: HypocratesCS, key Cys replaced; 80 µM oxidant; PBS pH 7.4.

Assay [5] addresses T3, Hypocrates (NemR-cpYFP biosensor) (Escherichia coli, UniProt P67430, C21S/C98S/C116S/C149S/C153S/K175A, form not given).
T3 construct: cpYFP (from HyPer-2) inserted with SAG/GT linkers into flexible loop of NemR^C106; pQE30; with Green fluorescent protein (circularly permuted yellow variant, cpYFP)
The description is as above. The format is cell-based. The following applies: HypocratesKA; 80 µM oxidant; PBS pH 7.4.

Assay [6] deals with T4, NemR^C106 (Escherichia coli, UniProt P67430, C21S/C98S/C116S/C149S/C153S).
T4 construct: pET-21b(+) in E. coli BL21 (DE3); Ni-Sepharose purified; DTT-reduced before assay; NemR homo-dimer
T4 sequence (P67430 whole entry C21S/C98S/C116S/C149S/C153S): as the sequence (P67430 whole entry C21S/C98S/C116S/C149S/C153S, form open) above
In words: stopped-flow, intrinsic Trp fluorescence. The format is binding. The following applies: covalent (oxidation); 100 mM sodium phosphate pH 7.4, 25 °C; 1 µM protein.

For assay [7], the target named is T4, NemR^C106. Briefly: intrinsic Trp fluorescence shift. In kind it is binding. The following applies: covalent (oxidation); 2 µM protein, 50 µM oxidant; 100 mM sodium phosphate pH 7.4.

T3 sequence (P67430 whole entry C21S/C98S/C116S/C149S/C153S/K175A, form open): as the sequence (P67430 whole entry C21S/C98S/C116S/C149S/C153S, form open) above, with K175A counted along it

For the compound `N#CSO` [HOSCN], the “sensitivity (slope of initial linear part)” value in assay [1] is on record as ~ 1.11 µM^−1. What is called stoichiometry N is a count of units in the complex or per binding partner. With Hypocrates (NemR-cpYFP biosensor), the stoichiometry N in assay [2] worked out at 2. As to `OCl` [NaOCl], the “second-order rate constant (kon)” value in assay [3] is “(1.4 ± 0.056) × 10^6 M^−1s^−1”. For the same compound, the no response entry in assay [4] was “E. coli cells expressing HypocratesCS did not respond anymore to the addition of NaOCl”. The “fluorescence excitation spectra in E. coli cells expressing the sensor” value in assay [5] is “we found that HypocratesKA is still highly sensitive to NaOCl (Fig. 1i)”. The second-order rate constant at NemR^C106 [6] is reported as ~ 3.0 × 10^5 M^−1s^−1. With `OBr` [NaOBr], the “intrinsic Trp fluorescence shift” value on NemR^C106 [7] was “The oxidants NaOCl, NCT, and NaOBr caused Trp-fluorescence shifts”.
